Key:
[1] = test system: 20-HETE formation (CYP4) in HLM; experiment: Inhibition of 20-HETE formation at 250 or 500 nM in HLM microsomal incubations; assay type: biochemical, human; conditions: 500 nM compound; HLM 300 μg/ml, AA 100 μM, 20 min
Protocol: (§1) To screen the inhibitory effects against 20-HETE formation, compounds were screened in HLM, RLM, RKM and rCYP4F2 microsomal incubations. Compounds dissolved in either 100% methanol or 100% DMSO to yield 10 mM stock solution. Microsomal incubations containing HLM, RLM, RKM (300 μg/ml) or rCYP4F2 (25 pmol/mL), AA (100 μM), NADPH (1 mM) treated with test compounds at various concentrations (500 nM or 250 nM) in a 1 ml total volume in incubation buffer (0.12 M potassium phosphate buffer containing 5 mM magnesium chloride). Reaction was started by adding NADPH to the incubates and was carried out at 37° C. in a shaking water bath for 20 min. Reaction was stopped by placing tubes on ice, followed by adding 125 μl 20-HETE-d6 as internal standard to each sample. Microsomal incubations were extracted with 3 ml ethyl ether twice, dried down under nitrogen gas and reconstituted in 125 μl 80:20 methanol:deionized H2O for analysis. 20-HETE formation was quantified using a validated UPLC-MS/MS assay and normalized by vehicle group. Each compound had three replications (n=3). Vehicle group was used as control to calculate percentage of 20-HETE formation rate. HET0016 (250 nM) was used as positive control. Incubates without NADPH group served as the negative control. An Acquity ultra performance LC autosampler (Waters, Milford, MA) was used to isolate 20-HETE on an UPLC BEH C18, 1.7 μm (2.1×100 mm) reversed-phase column (Waters, Milford, MA) protected by a guard column (2.1×5 mm; Waters, Milford, MA) of the same packing material. Column temperature was maintained at 55° C. Mobile phases consisted of 0.005% acetic acid, 5% acetonitrile in deionized water (A) and 0.005% acetic acid in acetonitrile (B). The flow rate for mobile phases is 0.5 ml/min. The initial mixture of mobile phase was 65:35 of A and B. Mobile phase B increased at 0.4 minutes after injection from 35% to 70% in a linear gradient over 4 minutes, and again increased to 95% over 0.5 minutes where it remained for 0.3 minutes. This was followed by a linear return to initial conditions over 0.1 minutes with a 1.5 minute pre-equilibration period prior to the next sample run. Total run time was 6.4 minutes for each injection. Injection volumes were 7.5 μl. Mass spectrometric analysis was carried out using a TSQ Quantum Ultra (Thermo Fisher Scientific, San Jose, CA) triple quadrupole mass spectrometer using heated electrospray ionization (HESI). Mass spectrometer was operated in negative selective reaction monitoring (SRM) mode with unit resolutions at both Q1 and Q3 set at 0.70 Da full width at half maximum. Scan time was set at 0.01 s and collision gas pressure was 1.3 mTorr. Quantitation of 20-HETE by SRM was performed by monitoring the m/z. Analytical data was acquired and analyzed using Xcaliber 3.0 data system (ThermoFinnigan, San Jose, CA).

[2] = test system: 20-HETE formation (CYP4) in RLM; experiment: Inhibition of 20-HETE formation at 250 or 500 nM in RLM microsomal incubations; assay type: biochemical, rat; conditions: 500 nM compound; RLM 300 μg/ml
Protocol: as §1

[3] = target: T1, rCYP4F2 (Homo sapiens, UniProt P78329); experiment: Inhibition of 20-HETE formation at 250 or 500 nM in rCYP4F2 incubations; assay type: biochemical; conditions: 500 nM compound; rCYP4F2 25 pmol/mL; read-out: rCYP4F2 % inh. @ 500 nM
T1 sequence (P78329 5-520): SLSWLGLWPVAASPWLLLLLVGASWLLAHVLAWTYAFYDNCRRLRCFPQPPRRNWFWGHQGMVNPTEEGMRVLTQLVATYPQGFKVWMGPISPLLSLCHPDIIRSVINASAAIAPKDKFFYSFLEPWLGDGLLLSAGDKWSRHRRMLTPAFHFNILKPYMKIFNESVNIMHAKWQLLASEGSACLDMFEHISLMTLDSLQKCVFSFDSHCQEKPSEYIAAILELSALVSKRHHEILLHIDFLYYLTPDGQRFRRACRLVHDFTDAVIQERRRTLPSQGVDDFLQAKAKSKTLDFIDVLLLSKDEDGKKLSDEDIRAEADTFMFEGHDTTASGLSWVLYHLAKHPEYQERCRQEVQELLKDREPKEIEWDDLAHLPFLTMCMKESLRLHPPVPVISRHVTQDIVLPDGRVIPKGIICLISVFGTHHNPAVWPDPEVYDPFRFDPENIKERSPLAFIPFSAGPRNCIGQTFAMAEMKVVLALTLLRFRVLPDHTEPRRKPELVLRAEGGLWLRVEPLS
Protocol: as §1

SMILES	HLM % inh. @ 500 nM [1]	RLM % inh. @ 500 nM [2]	inhibition at 0.5 µM [3]
COc1ccc(CC2CCN(c3ccn[nH]3)CC2)cc1 [Compound 79, 4-(4-Methoxybenzyl)-1-(1H-pyrazol-5-yl)piperidine]	60%	4.00%	62%
O=C(c1ccc(C2CCN(c3ccn[nH]3)CC2)cc1)N1CCCC1 [Compound 78, (4-(1-(1H-Pyrazol-5-yl)piperidin-4-yl)phenyl)(pyrrolidin-1-yl)methanone]	83.6%	0.00%	31%
Cc1cccc(CC2CCN(c3cn[nH]c3)CC2)c1 [Compound 94, 4-(3-Methylbenzyl)-1-(1H-pyrazol-4-yl)piperidine]	61.3%	13.50%	60.3%
O=S1(=O)CCc2cc(C3CCN(c4cn[nH]c4)CC3)ccc21 [Compound 102, 5-(1-(1H-Pyrazol-4-yl)piperidin-4-yl)-2,3-dihydrobenzo[b]thiophene 1,1-dioxide]	36.50%	0.00%	27.9%
COc1ccc(SC2CCN(c3ccn[nH]3)CC2)cc1 [Compound 68, 4-((4-Methoxyphenyl)thio)-1-(1H-pyrazol-5-yl)piperidine]	48%	0%	70.9%
COc1ccccc1C1CCN(c2ccn[nH]2)CC1 [Compound 21, 4-(2-Methoxyphenyl)-1-(1H-pyrazol-5-yl)piperidine]	8.80%	0.00%	2%
FC(F)(F)c1ccnc(C2CCN(c3cn[nH]c3)CC2)c1 [Compound 86, 2-(1-(1H-pyrazol-4-yl)piperidin-4-yl)-4-(trifluoromethyl)pyridine]	37.9%	18.10%	49.4%
O=C(c1ccc(C2CCN(c3ccn[nH]3)CC2)c(F)c1)N1CCCC1 [Compound 82]	75%	2.00%	36%
COc1cccc(SC2CCN(c3cn[nH]c3)CC2)c1 [Compound 76, 4-((3-Methoxyphenyl)thio)-1-(1H-pyrazol-4-yl)piperidine]	84%	0.00%	71%
Clc1cccc(CC2CCN(c3cn[nH]c3)CC2)c1 [Compound 90, 4-(3-chlorobenzyl)-1-(1H-pyrazol-4-yl)piperidine]	67%	20.80%	70.3%
O=[N+]([O-])c1ccc(C2CCN(c3ccn[nH]3)CC2)cc1 [Compound 112, 4-(4-Nitrophenyl)-1-(1H-pyrazol-5-yl)piperidine]	21.90%	20.30%	41.3%
O=S(=O)(c1ccc(C2CCN(c3ccn[nH]3)CC2)cc1)N1CCCC1 [Compound 96, 1-(1H-Pyrazol-5-yl)-4-(4-(pyrrolidin-1-ylsulfonyl)phenyl)piperidine]	63.10%	0.00%	16.4%
O=S1(=O)CCc2cc(C3CCN(c4ccn[nH]4)CC3)ccc21 [Compound 106, 5-(1-(1H-Pyrazol-5-yl)piperidin-4-yl)-2,3-dihydrobenzo[b]thiophene 1,1-dioxide]	0.00%	0.00%	0%
Cc1cccc(CC2CCN(c3ccn[nH]3)CC2)c1 [Compound 97, 4-(3-Methylbenzyl)-1-(1H-pyrazol-5-yl)piperidine]	35.30%	0.00%	22.9%
c1cnc(SC2CCN(c3cn[nH]c3)CC2)nc1 [Compound 88, 2-((1-(1H-Pyrazol-4-yl)piperidin-4-yl)thio)pyrimidine]	39.8%	0.00%	26.4%
FC(F)(F)c1cncc(C2CCN(c3ccn[nH]3)CC2)c1 [Compound 103, 3-(1-(1H-Pyrazol-5-yl)piperidin-4-yl)-5-(trifluoromethyl)pyridine]	0.00%	0.00%	0%
O=S(=O)(c1ccc(C2CCN(c3cn[nH]c3)CC2)cc1)N1CCCC1 [Compound 85, 1-(1H-Pyrazol-4-yl)-4-(4-(pyrrolidin-1-ylsulfonyl)phenyl)piperidine]	81.3%	0.00%	64%
COc1cc(CC2CCN(c3cn[nH]c3)CC2)ccn1 [Compound 98, 4-((1-(1H-Pyrazol-4-yl)piperidin-4-yl)methyl)-2-methoxypyridine]	37.20%	5.00%	25%
Nc1ccc(C2CCN(c3cn[nH]c3)CC2)cc1 [Compound 105, 4-(1-(1H-pyrazol-4-yl)piperidin-4-yl)aniline]	77.30%	17.00%	78%
O=C(c1ccc(C2CCN(c3cn[nH]c3)CC2)cc1)N1CCCC1 [Compound 77, (4-(1-(1H-Pyrazol-4-yl)piperidin-4-yl)phenyl)(pyrrolidin-1-yl)methanone]	84.4%	13.80%	55%
FC(F)(F)c1cncc(C2CCN(c3cn[nH]c3)CC2)c1 [Compound 95, 4 3-(1-(1H-Pyrazol-4-yl)piperidin-4-yl)-5-(trifluoromethyl)pyridine]	42.8%	15.40%	26.3%
Fc1ccccc1SC1CCN(c2cn[nH]c2)CC1 [Compound 92, 4-((2-Fluorophenyl)thio)-1-(1H-pyrazol-4-yl)piperidine]	77.3%	0.00%	87.1%
O=[N+]([O-])c1ccc(C2CCN(c3cn[nH]c3)CC2)cc1 [Compound 111, 4-(4-Nitrophenyl)-1-(1H-pyrazol-4-yl)piperidine]	43.5%	22.30%	60.1%
